Like-named read-outs stand apart in the source and are kept apart here.
Legend:
Type in all cases: in vivo
[1] = tested on: barnyardgrass (Echinochloa crus-galli); assay: Test A pre-/postemergence plant response; conditions: Echinochloa crus-galli, 240 h; for pest or weed control at 125 g/ha: 125 g ai/ha; for pest or weed control at 500 g/ha: 500 g ai/ha
In short: (§1)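 Injury was scored visually after roughly ten days against untreated controls, 0 = no effect, 100 = complete control. Test chemicals in a surfactant-containing non-phytotoxic solvent were sprayed either onto soil preemergence or onto one- to two-leaf, 2–10 cm plants postemergence.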

[2] = tested on: corn (Zea mays); assay: Test A pre-/postemergence plant response; conditions: Zea mays, 240 h; for Corn plant response rating (crop injury, 0 = no effect, 100 = complete kill) at 125 g/ha: 125 g ai/ha
In short: as §1

[3] = tested on: giant foxtail (Setaria faberii); assay: Test A pre-/postemergence plant response; conditions: Setaria faberi, 240 h; for pest or weed control at 125 g/ha: 125 g ai/ha; for pest or weed control at 500 g/ha: 500 g ai/ha
In short: as §1

[4] = tested on: large crabgrass (Digitaria sanguinalis); assay: Test A pre-/postemergence plant response; conditions: Digitaria sanguinalis, 240 h; for pest or weed control at 125 g/ha: 125 g ai/ha; for pest or weed control at 500 g/ha: 500 g ai/ha
In short: as §1

[5] = tested on: morningglory (Ipomoea spp.); assay: Test A pre-/postemergence plant response; conditions: Ipomoea, 240 h; for pest or weed control at 125 g/ha: 125 g ai/ha, read-out: Plant response rating, Morningglory
In short: as §1

[6] = tested on: pigweed (Amaranthus retroflexus); assay: Test A pre-/postemergence plant response; conditions: Amaranthus retroflexus, 240 h; for pest or weed control at 125 g/ha: 125 g ai/ha; for pest or weed control at 500 g/ha: 500 g ai/ha
In short: as §1

[7] = tested on: velvetleaf (Abutilon theophrasti); assay: Test A pre-/postemergence plant response; conditions: Abutilon theophrasti, 240 h; for pest or weed control at 125 g/ha: 125 g ai/ha; for pest or weed control at 500 g/ha: 500 g ai/ha
In short: as §1

[8] = tested on: wheat (Triticum aestivum); assay: Test A pre-/postemergence plant response; conditions: Triticum aestivum, 240 h; for plant injury at 125 g/ha: 125 g ai/ha; for plant injury at 500 g/ha: 500 g ai/ha
In short: as §1

[9] = tested on: barnyardgrass (Echinochloa crus-galli); assay: Test B flooded paddy test
In short: (§2)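 Plants were grown to the 2-leaf stage, then pots were flooded to 3 cm above the soil and compounds were applied directly into the paddy water. That depth was held throughout. After 13 to 15 days in a greenhouse, injury was visually rated against controls on a 0–100 scale.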

[10] = tested on: ducksalad (Heteranthera limosa); assay: Test B flooded paddy test
In short: as §2

[11] = tested on: rice (Oryza sativa); assay: Test B flooded paddy test
In short: as §2

[12] = tested on: umbrella sedge (Cyperus difformis); assay: Test B flooded paddy test
In short: as §2

[13] = pre-emergence, Preemergence, 0 to 100 scale, 0 = no effect, 100 = complete control, read-out: Plant response rating, Barnyardgrass
[14] = post-emergence, Postemergence, 0 to 100 scale where 0 is no effect and 100 is complete control
[15] = pre-emergence, Preemergence, 0 to 100 scale, 0 = no effect, 100 = complete control
[16] = pre-emergence, Preemergence, 0 to 100 scale, 0 = no effect, 100 = complete control, read-out: Plant response rating, Foxtail, Giant
[17] = pre-emergence, Preemergence, 0 to 100 scale, 0 = no effect, 100 = complete control, read-out: Plant response rating, Crabgrass, Large
[18] = pre-emergence, Preemergence, 0 to 100 scale, 0 = no effect, 100 = complete control, read-out: Plant response rating, Pigweed
[19] = pre-emergence, Preemergence, 0 to 100 scale, 0 = no effect, 100 = complete control, read-out: Plant response rating, Velvetleaf
[20] = pre-emergence, Preemergence, 0 to 100 scale, 0 = no effect, 100 = complete control, read-out: Plant response rating, Wheat
[21] = Flood, 31 g ai/ha, scale 0 to 100 (0 no effect, 100 complete control)

In the case of `O=C(c1cnoc1C1CC1)c1cnc(-c2ccccc2)n(-c2ccccc2)c1=O` [Compound 223, 5-[(5-cyclopropyl-4-isoxazolyl)-carbonyl]-2,3-diphenyl-4(3H)-pyrimidinone], the pest or weed control at 125 g/ha ([1]; post-emergence, Postemergence, 0 to 100 scale where 0 is no effect and 100 is complete control, read-out: Plant response rating, Barnyardgrass) is reported as 0%, the pest or weed control at 500 g/ha ([1]; post-emergence, Postemergence, visual injury, 0 to 100 scale (0 no effect, 100 complete control), approx. ten days, read-out: Barnyardgrass plant response rating) is reported as 50% and the pest or weed control at 125 g/ha [1, 13] is reported as 0%. It also gave a pest or weed control at 500 g/ha [1, 13] of 70%, a Corn plant response rating (crop injury, 0 = no effect, 100 = complete kill) at 125 g/ha [2, 14] of 0% and a plant injury at 500 g/ha ([2]; post-emergence, Postemergence, 500 g ai/ha, visual injury, 0 to 100 scale (0 no effect, 100 complete control), approx. ten days, read-out: Corn plant response rating) of 20%. For the same compound, the Corn plant response rating (crop injury, 0 = no effect, 100 = complete kill) at 125 g/ha [2, 15] was 0%, the Corn plant response rating (crop injury, 0 = no effect, 100 = complete kill) at 500 g/ha ([2]; pre-emergence, Preemergence, 500 g ai/ha, 0 to 100 scale, 0 = no effect, 100 = complete control) was 0% and the pest or weed control at 125 g/ha ([3]; post-emergence, Postemergence, 0 to 100 scale where 0 is no effect and 100 is complete control, read-out: Plant response rating, Foxtail, Giant) was 0%. The pest or weed control at 500 g/ha ([3]; post-emergence, Postemergence, visual injury, 0 to 100 scale (0 no effect, 100 complete control), approx. ten days, read-out: Foxtail, Giant plant response rating) was 70%, the pest or weed control at 125 g/ha [3, 16] was 30% and the pest or weed control at 500 g/ha [3, 16] was 90%. For the same compound, the pest or weed control at 125 g/ha ([4]; post-emergence, Postemergence, 0 to 100 scale where 0 is no effect and 100 is complete control, read-out: Plant response rating, Crabgrass, Large) was 0%, the pest or weed control at 500 g/ha ([4]; post-emergence, Postemergence, visual injury, 0 to 100 scale (0 no effect, 100 complete control), approx. ten days, read-out: Crabgrass, Large plant response rating) was 60% and the pest or weed control at 125 g/ha [4, 17] was 30%. The pest or weed control at 500 g/ha [4, 17] was 80%, the pest or weed control at 125 g/ha [5, 14] was 60% and the pest or weed control at 500 g/ha ([5]; post-emergence, Postemergence, 500 g ai/ha, visual injury, 0 to 100 scale (0 no effect, 100 complete control), approx. ten days, read-out: Morningglory plant response rating) was 80%. For the same compound, the pest or weed control at 125 g/ha [5, 15] was 10%, the pest or weed control at 125 g/ha ([6]; post-emergence, Postemergence, 0 to 100 scale where 0 is no effect and 100 is complete control, read-out: Plant response rating, Pigweed) was 50% and the pest or weed control at 500 g/ha ([6]; post-emergence, Postemergence, visual injury, 0 to 100 scale (0 no effect, 100 complete control), approx. ten days, read-out: Pigweed plant response rating) was 70%. It also gave a pest or weed control at 125 g/ha [6, 18] of 60%, a pest or weed control at 500 g/ha [6, 18] of 90% and a pest or weed control at 125 g/ha ([7]; post-emergence, Postemergence, 0 to 100 scale where 0 is no effect and 100 is complete control, read-out: Plant response rating, Velvetleaf) of 50%. The pest or weed control at 500 g/ha ([7]; post-emergence, Postemergence, visual injury, 0 to 100 scale (0 no effect, 100 complete control), approx. ten days, read-out: Velvetleaf plant response rating) was 80%, the pest or weed control at 125 g/ha [7, 19] was 0% and the pest or weed control at 500 g/ha [7, 19] was 60%. The plant injury at 125 g/ha ([8]; post-emergence, Postemergence, 0 to 100 scale where 0 is no effect and 100 is complete control, read-out: Plant response rating, Wheat) was 0%, the plant injury at 500 g/ha ([8]; post-emergence, Postemergence, visual injury, 0 to 100 scale (0 no effect, 100 complete control), approx. ten days, read-out: Wheat plant response rating) was 0% and the plant injury at 125 g/ha [8, 20] was 0%. It also gave a plant injury at 500 g/ha [8, 20] of 0%, a pest or weed control at 250 g/ha ([9]; Echinochloa crus-galli, 360 h, 250 g ai/ha, flooded paddy test, visual rating on 0 to 100 scale (0 no effect, 100 complete control) after 13 to 15 days, read-out: Plant response rating, Flood, Barnyardgrass) of 0% and a pest or weed control at 62 g/ha ([9]; Echinochloa crus-galli, 360 h, Flood (flooded paddy test), 62 g ai/ha, scale of 0 to 100 where 0 is no effect and 100 is complete control, 13 to 15 days, read-out: Plant response rating, Barnyardgrass) of 0%. The pest or weed control at 125 g/ha ([9]; Echinochloa crus-galli, 360 h, Flood (flooded paddy test), 125 g ai/ha, scale 0 to 100, 0 is no effect, 100 is complete control, 13 to 15 days, read-out: Plant response rating, Barnyardgrass) was 0%, the “Barnyardgrass plant response rating” value [9, 21] was 0 and the “Ducksalad plant response rating” value [10, 21] was 0. For the same compound, the pest or weed control at 250 g/ha ([10]; Heteranthera limosa, 360 h, 250 g ai/ha, flooded paddy test, visual rating on 0 to 100 scale (0 no effect, 100 complete control) after 13 to 15 days, read-out: Plant response rating, Flood, Ducksalad) was 0%, the pest or weed control at 62 g/ha ([10]; Heteranthera limosa, 360 h, Flood (flooded paddy test), 62 g ai/ha, scale of 0 to 100 where 0 is no effect and 100 is complete control, 13 to 15 days, read-out: Plant response rating, Ducksalad) was 0% and the pest or weed control at 125 g/ha ([10]; Heteranthera limosa, 360 h, Flood (flooded paddy test), 125 g ai/ha, scale 0 to 100, 0 is no effect, 100 is complete control, 13 to 15 days, read-out: Plant response rating, Ducksalad) was 0%. The “Rice plant response rating” value [11, 21] was 0, the plant injury at 250 g/ha ([11]; Oryza sativa, 250 g ai/ha, flooded paddy test, visual rating on 0 to 100 scale (0 no effect, 100 complete control) after 13 to 15 days, read-out: Plant response rating, Flood, Rice) was 0% and the plant injury at 62 g/ha ([11]; Oryza sativa, Flood (flooded paddy test), 62 g ai/ha, scale of 0 to 100 where 0 is no effect and 100 is complete control, 13 to 15 days, read-out: Plant response rating, Rice) was 0%. For the same compound, the plant injury at 125 g/ha ([11]; Oryza sativa, Flood (flooded paddy test), 125 g ai/ha, scale 0 to 100, 0 is no effect, 100 is complete control, 13 to 15 days, read-out: Plant response rating, Rice) was 0%, the pest or weed control at 250 g/ha ([12]; Cyperus difformis, 360 h, 250 g ai/ha, flooded paddy test, visual rating on 0 to 100 scale (0 no effect, 100 complete control) after 13 to 15 days, read-out: Plant response rating, Flood, Sedge, Umbrella) was 0% and the pest or weed control at 62 g/ha ([12]; Cyperus difformis, 360 h, Flood (flooded paddy test), 62 g ai/ha, scale of 0 to 100 where 0 is no effect and 100 is complete control, 13 to 15 days, read-out: Plant response rating, Sedge, Umbrella) was 0%. The pest or weed control at 125 g/ha ([12]; Cyperus difformis, 360 h, Flood (flooded paddy test), 125 g ai/ha, scale 0 to 100, 0 is no effect, 100 is complete control, 13 to 15 days, read-out: Plant response rating, Sedge, Umbrella) was 0% and the “Sedge, Umbrella plant response rating” value [12, 21] was 0.

Reference: patent US8952024B2, “Herbicidal pyrimidone derivatives” (E I du Pont de Nemours and Company, priority 2009, dated 2015)
